Molecules are shown by their SMILES.

This assay deals with type I collagen deposition in primary lung fibroblasts. Kind of assay: Highthroughput type I collagen deposition (scar-in-a-jar) high content screening assay. The assay is classed as cell-based. The following applies: Homo sapiens, Primary lung fibroblast, 72 h, human pulmonary fibroblasts, TGF-β 1 ng/ml, Ficoll crowding, mean of multiple experiments, read-out: mean pIC50, inhibition of type I collagen deposition (converted). Here is the method:
Example 53 Highthroughput Type I Collagen Deposition (Scar-in-a-Jar) High Content Screening Assay
Highthroughput, cellular type I collagen deposition was measured by adapting a published method; scar-in-a-jar (Chen et al., 2009) to primary lung fibroblasts derived from human tissue and combining with high content analysis to permit fluorescent quantification of collagen deposited in the extracellular matrix (ECM). The human biological samples were sourced ethically and their research use was in accord with the terms of the informed consents
Test compounds were dissolved in 100% DMSO to give 10 mM (stocks) and further diluted to give half log dilutions to generate an 11 point concentration response curve. 1 ul was transferred to 384-well plates (Greiner Group, Kremsmunster, Austria, Catalogue No Greine 781280r).
Human pulmonary fibroblasts were maintained in DMEM media (Gibco, Catalogue No 21969) supplemented with 4 mM L-glutamine (Gibco Catalogue No 25030-024) and 10% heat inactivated FBS (Gibco, Catalogue No 10099-141) at 37° C. in 10% CO2. Cells were harvested and resuspended at 4×10^6 cells/ml in a T175 cell culture flask (BD Falcom, Catalogue No: 353112) containing 50 mL of culture media. After 4 days 37° C. in 10% CO2, cells were harvested and seeded at 4000 cells per well (50 μL/well) into 384-well plates (BD Falcon, Catalogue No 353962Greiner) in assay media (0.4% heat inactivated FBS, 4 mM L-glutamine). Plates were sealed with breathable seals (Sigma, Catalogue No. BEM-1). Assay plates were incubated for 72 h at 37° C. in 10% CO2.
Assay media was supplemented with 112.5 mg/ml Ficoll 70 (Sigma, Catalogue No F2878), 75 mg/ml Ficoll 400 (Sigma, Catalogue No F4375) and 50 μg/ml ascorbic acid (Sigma, Catalogue No A8960). 30 μL assay media were added to 1 μl compound (37 μM compound concentration in 1% DMSO). Diluted compounds (10 μL) were transferred to plates containing cells and incubated for 3 h at 37° C. in 10% CO2. Transforming growth factor (TGF)-β (R&D systems, Catalogue No 100-B/CF) was reconstituted to give 10 μg/mL (stock) and further diluted in assay media containing Ficoll and ascorbic acid (1 in 3333). TGF-β was added to cell plates (1 ng/ml final) and cells incubated for 72 h at 37° C. in 10% CO2.
Media was aspirated from cells and 30 μL/well 100% ice-cold methanol added and incubated at RT for 5 min to fix cells. Methanol was aspirated and cells washed with PBS (3×). To block and permeabilise, cells were incubated with PBS containing 1% BSA and 0.1% Triton X 100 for 20 min, followed by PBS wash (3×). Cells were incubated with mouse anti human type I collagen monoclonal antibody (Sigma, Catalogue No C2456) diluted 1:1000 in PBS for 24 h at 4° C. Cells were washed with PBS containing 0.1% Tween-20 (3×) and incubated with secondary alexa fluor 488 goat-anti-mouse antibody (Invitrogen, Catalogue No A11001, 1 in 500 in PBS) and Hoechst 33342 (Sigma, Catalogue No H21492), 1 in 1000 in PBS) for 1 h at RT, prior to washing with PBS containing 0.1% Tween (×4).
Type I collagen immunoreactivity was detected using the INCell 2000 Analyzer (GE Healthcare, INcell 2000) set to excitation and emission wavelengths for DAPI and FITC with laser focus and exposure adjusted to appropriate levels. Images were imported and analysed using Columbus software (Perkin Elmer) and computational algorithms to quantify “total collagen area” and “cell count”.
Data analysis was performed by determining % inhibition values for test compounds relative to the minimum (media only) and maximum responses (TGF-βstimulation) with non-linear regression analysis to determine IC50 values for test compounds.
For the molecule `CNCc1cc2nc(-c3cc(C(C)(C)S(C)(=O)=O)cc(N4CCOC[C@@H]4C)n3)ccc2[nH]1` [Example 2, (S)—N-methyl-1-(5-(6-(3-methylmorpholino)-4-(2-(methylsulfonyl)propan-2-yl)pyridin-2-yl)-1H-pyrrolo[3,2-b]pyridin-2-yl)methanamine], the IC50 is 0.0398 to 1 µM.
For `CNCc1cc2nc(-c3cc(C(C)(C)S(C)(=O)=O)cc(N4[C@@H]5CC[C@H]4COC5)n3)ccc2[nH]1` [Example 3, 1-(5-(6-((1R,5S)-3-oxa-8-azabicyclo[3.2.1]octan-8-yl)-4-(2-(methylsulfonyl)propan-2-yl)pyridin-2-yl)-1H-pyrrolo[3,2-b]pyridin-2-yl)-N-methylmethanamine] the value was 0.0398 to 1 µM; for `CNCc1cc2nc(-c3cc(C(C)(C)S(C)(=O)=O)cc(N4CC5CCC(C4)O5)n3)ccc2[nH]1` [Example 4, 1-(5-(6-(8-oxa-3-azabicyclo[3.2.1]octan-3-yl)-4-(2-(methylsulfonyl)propan-2-yl)pyridin-2-yl)-1H-pyrrolo[3,2-b]pyridin-2-yl)-N-methylmethanamine], 0.0398 to 1 µM; for `CNCc1cc2nc(-c3cc(C(C)(C)S(C)(=O)=O)cc(N4C5CCCC4COC5)n3)ccc2[nH]1` [Example 5, 1-(5-(6-(3-oxa-9-azabicyclo[3.3.1]nonan-9-yl)-4-(2-(methylsulfonyl)propan-2-yl)pyridin-2-yl)-1H-pyrrolo[3,2-b]pyridin-2-yl)-N-methylmethanamine], 0.0398 to 1 µM.
Then `CNCc1cc2nc(-c3cc(CS(C)(=O)=O)cc(N4CCOC[C@@H]4C)n3)ccc2[nH]1` [Example 6, (S)—N-methyl-1-(5-(6-(3-methylmorpholino)-4-((methylsulfonyl)methyl)pyridin-2-yl)-1H-pyrrolo[3,2-b]pyridin-2-yl)methanamine], with 0.0398 to 1 µM; and `CCS(=O)(=O)C(C)(C)c1cc(-c2ccc3[nH]c(CNC)cc3n2)nc(N2CCOC[C@@H]2C)c1` [Example 7, (S)-1-(5-(4-(2-(ethylsulfonyl)propan-2-yl)-6-(3-methylmorpholino)pyridin-2-yl)-1H-pyrrolo[3,2-b]pyridin-2-yl)-N-methylmethanamine], with 0.0398 to 1 µM.
On to `CC[C@H]1COCCN1c1cc(C(C)(C)S(=O)(=O)C2CC2)cc(-c2ccc3[nH]c(CNC)cc3n2)n1` [Example 9, (S)-1-(5-(4-(2-(cyclopropylsulfonyl)propan-2-yl)-6-(3-ethylmorpholino)pyridin-2-yl)-1H-pyrrolo[3,2-b]pyridin-2-yl)-N-methylmethanamine], for which the IC50 was 0.0398 to 0.1 µM.
Take `CC[C@H]1COCCN1c1cc(CS(=O)(=O)C2CC2)cc(-c2ccc3[nH]c(CNC)cc3n2)n1` [Example 10, (S)-1-(5-(4-((cyclopropylsulfonyl)methyl)-6-(3-ethylmorpholino)pyridin-2-yl)-1H-pyrrolo[3,2-b]pyridin-2-yl)-N-methylmethanamine]: the IC50 is 0.0398 to 1 µM.
For the molecule `CC[C@H]1COCCN1c1cc(C2(S(=O)(=O)C3CC3)CC2)cc(-c2ccc3[nH]c(CNC)cc3n2)n1` [Example 11, (S)-1-(5-(4-(1-(cyclopropylsulfonyl)cyclopropyl)-6-(3-ethylmorpholino)pyridin-2-yl)-1H-pyrrolo[3,2-b]pyridin-2-yl)-N-methylmethanamine], the IC50 was 0.0398 to 0.1 µM.
Then `CNCc1cc2nc(-c3cc(C(F)(F)S(C)(=O)=O)cc(N4CCOC[C@@H]4C)n3)ccc2[nH]1` [Example 12, (S)-1-(5-(4-(difluoro(methylsulfonyl)methyl)-6-(3-methylmorpholino)pyridin-2-yl)-1H-pyrrolo[3,2-b]pyridin-2-yl)-N-methylmethanamine], with 0.0398 to 1 µM; and `CC[C@H]1COCCN1c1cc(CS(C)(=O)=O)cc(-c2ccc3[nH]c(CNC)cc3n2)n1` [Example 13, (S)-1-(5-(6-(3-ethylmorpholino)-4-((methylsulfonyl)methyl)pyridin-2-yl)-1H-pyrrolo[3,2-b]pyridin-2-yl)-N-methylmethanamine], with 0.0398 to 1 µM; and `CC[C@H]1COCCN1c1cc(CS(=O)(=O)N(C)C)cc(-c2ccc3[nH]c(CNC)cc3n2)n1` [Example 17, (S)-1-(2-(3-ethylmorpholino)-6-(2-((methylamino)methyl)-1H-pyrrolo[3,2-b]pyridin-5-yl)pyridin-4-yl)-N,N-dimethylmethanesulfonamide], with 0.0398 to 1 µM.
For `CC[C@H]1COCCN1c1cc(C2(S(C)(=O)=O)CC2)cc(-c2ccc3[nH]c(CNC)cc3n2)n1` [Example 19, [(5-{6-[(3S)-3-ethylmorpholin-4-yl]-4-(1-methanesulfonylcyclopropyl)pyridin-2-yl}-1H-pyrrolo[3,2-b]pyridin-2-yl)methyl](methyl)amine] the value was 0.0398 to 1 µM; for `CNCc1cc2nc(-c3cc(C4(S(C)(=O)=O)CC4)cc(N4CCOC[C@@H]4C)n3)ccc2[nH]1` [Example 20, ({5-[4-(1-methanesulfonylcyclopropyl)-6-[(3S)-3-methylmorpholin-4-yl]pyridin-2-yl]-1H-pyrrolo[3,2-b]pyridin-2-yl}methyl)(methyl)amine], 0.0398 to 1 µM; for `CC[C@H]1COCCN1c1cc(C(C)(C)S(C)(=O)=O)cc(-c2ccc3[nH]c(CN)cc3n2)n1` [Example 21, 1-(5-{6-[(3S)-3-ethylmorpholin-4-yl]-4-(2-methanesulfonylpropan-2-yl)pyridin-2-yl}-1H-pyrrolo[3,2-b]pyridin-2-yl)methanamine], 0.0398 to 1 µM.
For `CC[C@H]1COCCN1c1cc(C2(S(C)(=O)=O)CCOCC2)cc(-c2ccc3[nH]c(CN)cc3n2)n1` [Example 23, 1-(5-{6-[(3S)-3-ethylmorpholin-4-yl]-4-(4-methanesulfonyloxan-4-yl)pyridin-2-yl}-1H-pyrrolo[3,2-b]pyridin-2-yl)methanamine] the value was 0.0398 to 1 µM.
For `CNCc1cc2nc(-c3cc(CS(C)(=O)=O)cc(N4CC5CCC(C4)O5)n3)ccc2[nH]1` [Example 25, ({5-[4-(methanesulfonylmethyl)-6-{8-oxa-3-azabicyclo[3.2.1]octan-3-yl}pyridin-2-yl]-1H-pyrrolo[3,2-b]pyridin-2-yl}methyl)(methyl)amine], the IC50 was 0.0398 to 1 µM.
Turning to `CC[C@H]1COCCN1c1cc(C(C)(C)S(N)(=O)=O)cc(-c2ccc3[nH]c(CNC)cc3n2)n1` [Example 28, 2-{2-[(3S)-3-ethylmorpholin-4-yl]-6-{2-[(methylamino)methyl]-1H-pyrrolo[3,2-b]pyridin-5-yl}pyridin-4-yl}propane-2-sulfonamide], the IC50 is 0.0398 to 1 µM.
As for `CC[C@H]1COCCN1c1cc(CS(=O)(=O)NC)cc(-c2ccc3[nH]c(CNC)cc3n2)n1` [Example 30, 1-{2-[(3S)-3-ethylmorpholin-4-yl]-6-{2-[(methylamino)methyl]-1H-pyrrolo[3,2-b]pyridin-5-yl}pyridin-4-yl}-N-methylmethanesulfonamide], the IC50 is 0.0398 to 1 µM.
In the case of `CC[C@H]1COCCN1c1cc(C2(S(=O)(=O)N(C)C)CCOCC2)cc(-c2ccc3[nH]c(CNC)cc3n2)n1` [Example 31, 4-{2-[(3S)-3-ethylmorpholin-4-yl]-6-{2-[(methylamino)methyl]-1H-pyrrolo[3,2-b]pyridin-5-yl}pyridin-4-yl}-N,N-dimethyloxane-4-sulfonamide], the IC50 is 0.0398 to 0.1 µM.
`CC[C@H]1COCCN1c1cc(C(C)(C)S(C)(=O)=O)cc(-c2ccc3[nH]c(CO)cc3n2)n1` [Example 32]: the IC50 is 0.0398 to 1 µM.
Turning to `CC[C@H]1COCCN1c1cc(C2(S(C)(=O)=O)CCOCC2)cc(-c2ccc3[nH]c(CO)cc3n2)n1` [Example 33, (5-{6-[(3S)-3-ethylmorpholin-4-yl]-4-(4-methanesulfonyloxan-4-yl)pyridin-2-yl}-1H-pyrrolo[3,2-b]pyridin-2-yl)methanol], the IC50 was 0.0398 to 1 µM.
